Assay results reported in the supplement of paper PMC12463676, “Small-molecule dissolution of stress granules by redox modulation benefits ALS models” (Nature Chemical Biology, 2025).

Key:
lipoamide = compound: NC(=O)CCCCC1CCSS1 [lipoamide]; assay: thermal stability z-score vs DMSO; higher = more thermally stabilized by treatment; conditions: HeLa, lipoamide concentration 100 µM
Experimental: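 Cellular thermal proteome profiling in HeLa cells. Cells were treated with 100 µM lipoamide for 1 h, with or without 1 mM arsenate for a further 1 h, then heated to ten temperatures (37-66.3 °C), and soluble protein was quantified by TMT mass spectrometry relative to 0.1% DMSO controls. The thermal stability score (sum of log2 fold changes minus the abundance score) was transformed to a z-score; mean of n = 3 experiments.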

potassium arsenate = compound: O=[As]([O-])(O)O.[K+] [potassium arsenate]; assay: as above; conditions: HeLa; arsenate concentration 1 mM
Experimental: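 Cellular thermal proteome profiling in HeLa cells treated with 1 mM arsenate for 1 h (DMSO pretreatment), heated to ten temperatures (37-66.3 °C). Soluble protein was quantified by TMT mass spectrometry relative to DMSO controls; the thermal stability score was transformed to a z-score; mean of n = 3 experiments.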

[1] = arsenate co-treatment: 1 mM arsenate 1 h
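Further: each temperature applied for 3 min, abundance score taken as mean log2 fold change at the two lowest temperatures, z-score obtained by mean subtraction and division by SD.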

SGPL1 (UniProt O95470)
thermal stability z-score (lipoamide; [1]): 0.442
thermal stability z-score (lipoamide; arsenate co-treatment: none): 0.255
thermal stability z-score (potassium arsenate): -0.584

SLC20A1 (UniProt Q8WUM9)
Chain of UniProt Q8WUM9 (Q8WUM9 whole entry): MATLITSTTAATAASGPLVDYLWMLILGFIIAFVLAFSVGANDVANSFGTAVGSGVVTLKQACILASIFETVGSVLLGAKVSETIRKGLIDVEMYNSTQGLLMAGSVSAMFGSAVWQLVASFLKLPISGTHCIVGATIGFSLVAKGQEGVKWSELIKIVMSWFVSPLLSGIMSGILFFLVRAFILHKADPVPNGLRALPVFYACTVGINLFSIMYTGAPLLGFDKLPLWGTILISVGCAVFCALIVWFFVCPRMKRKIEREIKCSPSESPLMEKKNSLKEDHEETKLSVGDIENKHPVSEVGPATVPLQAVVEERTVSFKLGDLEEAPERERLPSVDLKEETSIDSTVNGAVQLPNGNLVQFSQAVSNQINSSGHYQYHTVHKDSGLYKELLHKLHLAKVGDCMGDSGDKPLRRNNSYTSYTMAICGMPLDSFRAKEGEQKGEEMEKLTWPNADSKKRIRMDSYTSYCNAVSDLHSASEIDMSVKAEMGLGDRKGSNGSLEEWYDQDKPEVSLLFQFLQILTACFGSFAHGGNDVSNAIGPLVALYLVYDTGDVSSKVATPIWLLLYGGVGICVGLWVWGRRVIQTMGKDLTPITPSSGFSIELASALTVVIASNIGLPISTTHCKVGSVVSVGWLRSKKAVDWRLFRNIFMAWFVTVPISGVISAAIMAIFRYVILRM
thermal stability z-score (lipoamide; [1]): 0.249
thermal stability z-score (lipoamide; arsenate co-treatment: none): 0.0269
thermal stability z-score (potassium arsenate): -0.23

PPT1 (UniProt P50897)
thermal stability z-score (lipoamide; [1]): -0.494
thermal stability z-score (lipoamide; arsenate co-treatment: none): -0.324
thermal stability z-score (potassium arsenate): -0.00594

HSPA13 (UniProt P48723)
Chain of UniProt P48723 (P48723 whole entry): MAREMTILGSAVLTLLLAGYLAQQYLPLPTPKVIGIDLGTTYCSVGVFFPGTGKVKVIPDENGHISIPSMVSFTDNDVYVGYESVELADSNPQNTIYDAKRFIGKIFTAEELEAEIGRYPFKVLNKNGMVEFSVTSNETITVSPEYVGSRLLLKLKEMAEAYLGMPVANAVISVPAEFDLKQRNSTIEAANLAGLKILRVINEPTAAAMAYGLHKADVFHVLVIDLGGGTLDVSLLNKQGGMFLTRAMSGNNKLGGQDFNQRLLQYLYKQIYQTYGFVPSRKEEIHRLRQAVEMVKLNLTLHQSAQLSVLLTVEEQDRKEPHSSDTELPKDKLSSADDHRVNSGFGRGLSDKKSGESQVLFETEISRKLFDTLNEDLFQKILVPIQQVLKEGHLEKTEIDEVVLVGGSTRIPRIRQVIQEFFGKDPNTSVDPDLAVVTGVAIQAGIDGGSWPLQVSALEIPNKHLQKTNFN
thermal stability z-score (lipoamide; [1]): -2.72
thermal stability z-score (lipoamide; arsenate co-treatment: none): -2.35
thermal stability z-score (potassium arsenate): -0.112

TRIP12 (UniProt Q14669)
thermal stability z-score (lipoamide; [1]): -0.227
thermal stability z-score (lipoamide; arsenate co-treatment: none): -0.162
thermal stability z-score (potassium arsenate): 0.157

ADSL (UniProt P30566)
thermal stability z-score (lipoamide; [1]): -0.0252
thermal stability z-score (lipoamide; arsenate co-treatment: none): -0.429
thermal stability z-score (potassium arsenate): -1.53

SOAT1 (UniProt P35610)
thermal stability z-score (lipoamide; [1]): -1.32
thermal stability z-score (lipoamide; arsenate co-treatment: none): -0.546
thermal stability z-score (potassium arsenate): 0.731

SLC7A1 (UniProt P30825)
Chain of UniProt P30825 (P30825 whole entry): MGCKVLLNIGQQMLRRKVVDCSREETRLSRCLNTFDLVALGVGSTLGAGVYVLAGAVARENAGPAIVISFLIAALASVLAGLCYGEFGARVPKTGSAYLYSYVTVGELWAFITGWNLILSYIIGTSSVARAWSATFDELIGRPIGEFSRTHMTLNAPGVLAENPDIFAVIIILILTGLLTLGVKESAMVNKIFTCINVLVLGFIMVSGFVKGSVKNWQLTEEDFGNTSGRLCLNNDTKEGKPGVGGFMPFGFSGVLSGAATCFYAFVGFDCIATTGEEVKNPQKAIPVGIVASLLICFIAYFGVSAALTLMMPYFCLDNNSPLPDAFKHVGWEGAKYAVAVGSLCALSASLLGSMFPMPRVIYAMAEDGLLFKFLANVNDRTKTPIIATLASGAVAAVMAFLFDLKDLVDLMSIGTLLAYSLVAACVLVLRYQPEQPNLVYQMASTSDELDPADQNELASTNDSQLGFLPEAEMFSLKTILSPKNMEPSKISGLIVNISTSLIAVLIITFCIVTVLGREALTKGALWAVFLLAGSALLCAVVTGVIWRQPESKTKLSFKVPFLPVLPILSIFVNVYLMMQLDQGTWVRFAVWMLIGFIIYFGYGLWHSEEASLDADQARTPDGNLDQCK
thermal stability z-score (lipoamide; [1]): 0.364
thermal stability z-score (lipoamide; arsenate co-treatment: none): -0.194
thermal stability z-score (potassium arsenate): -0.33

PPP3CB (UniProt P16298)
thermal stability z-score (lipoamide; [1]): -0.386
thermal stability z-score (lipoamide; arsenate co-treatment: none): -2.04
thermal stability z-score (potassium arsenate): -0.199

HIST1H1B (UniProt P16401)
thermal stability z-score (lipoamide; [1]): 1.01
thermal stability z-score (lipoamide; arsenate co-treatment: none): 0.679
thermal stability z-score (potassium arsenate): 1.19

DDX54 (UniProt Q8TDD1)
thermal stability z-score (lipoamide; [1]): -0.154
thermal stability z-score (lipoamide; arsenate co-treatment: none): -0.015
thermal stability z-score (potassium arsenate): -0.136

G6PD (UniProt P11413)
Chain of UniProt P11413 (P11413 whole entry): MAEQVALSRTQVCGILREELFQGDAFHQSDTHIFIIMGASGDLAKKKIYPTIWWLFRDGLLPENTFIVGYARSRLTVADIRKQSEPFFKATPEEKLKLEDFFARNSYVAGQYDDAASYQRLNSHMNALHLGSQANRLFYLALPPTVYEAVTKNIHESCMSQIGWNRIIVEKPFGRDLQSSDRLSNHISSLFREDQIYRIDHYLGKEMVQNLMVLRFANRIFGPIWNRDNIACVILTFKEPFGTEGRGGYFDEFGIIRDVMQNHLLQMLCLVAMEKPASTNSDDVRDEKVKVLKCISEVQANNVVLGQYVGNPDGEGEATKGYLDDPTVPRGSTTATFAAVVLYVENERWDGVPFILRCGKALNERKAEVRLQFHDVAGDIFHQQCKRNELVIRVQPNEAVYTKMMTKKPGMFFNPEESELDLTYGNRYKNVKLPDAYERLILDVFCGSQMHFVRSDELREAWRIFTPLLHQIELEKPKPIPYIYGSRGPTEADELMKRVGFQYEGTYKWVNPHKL
thermal stability z-score (lipoamide; [1]): 0.218
thermal stability z-score (lipoamide; arsenate co-treatment: none): 0.206
thermal stability z-score (potassium arsenate): 0.535

NIF3L1 (UniProt Q9GZT8)
thermal stability z-score (lipoamide; [1]): -0.14
thermal stability z-score (lipoamide; arsenate co-treatment: none): -0.407
thermal stability z-score (potassium arsenate): 0.115

NPM3 (UniProt O75607)
thermal stability z-score (lipoamide; [1]): 0.175
thermal stability z-score (lipoamide; arsenate co-treatment: none): 0.102
thermal stability z-score (potassium arsenate): -0.95

DNAJC1 (UniProt Q96KC8)
thermal stability z-score (lipoamide; [1]): -0.436
thermal stability z-score (lipoamide; arsenate co-treatment: none): -0.516
thermal stability z-score (potassium arsenate): -0.725

TRIM33 (UniProt Q9UPN9)
Chain of UniProt Q9UPN9 (Q9UPN9 whole entry): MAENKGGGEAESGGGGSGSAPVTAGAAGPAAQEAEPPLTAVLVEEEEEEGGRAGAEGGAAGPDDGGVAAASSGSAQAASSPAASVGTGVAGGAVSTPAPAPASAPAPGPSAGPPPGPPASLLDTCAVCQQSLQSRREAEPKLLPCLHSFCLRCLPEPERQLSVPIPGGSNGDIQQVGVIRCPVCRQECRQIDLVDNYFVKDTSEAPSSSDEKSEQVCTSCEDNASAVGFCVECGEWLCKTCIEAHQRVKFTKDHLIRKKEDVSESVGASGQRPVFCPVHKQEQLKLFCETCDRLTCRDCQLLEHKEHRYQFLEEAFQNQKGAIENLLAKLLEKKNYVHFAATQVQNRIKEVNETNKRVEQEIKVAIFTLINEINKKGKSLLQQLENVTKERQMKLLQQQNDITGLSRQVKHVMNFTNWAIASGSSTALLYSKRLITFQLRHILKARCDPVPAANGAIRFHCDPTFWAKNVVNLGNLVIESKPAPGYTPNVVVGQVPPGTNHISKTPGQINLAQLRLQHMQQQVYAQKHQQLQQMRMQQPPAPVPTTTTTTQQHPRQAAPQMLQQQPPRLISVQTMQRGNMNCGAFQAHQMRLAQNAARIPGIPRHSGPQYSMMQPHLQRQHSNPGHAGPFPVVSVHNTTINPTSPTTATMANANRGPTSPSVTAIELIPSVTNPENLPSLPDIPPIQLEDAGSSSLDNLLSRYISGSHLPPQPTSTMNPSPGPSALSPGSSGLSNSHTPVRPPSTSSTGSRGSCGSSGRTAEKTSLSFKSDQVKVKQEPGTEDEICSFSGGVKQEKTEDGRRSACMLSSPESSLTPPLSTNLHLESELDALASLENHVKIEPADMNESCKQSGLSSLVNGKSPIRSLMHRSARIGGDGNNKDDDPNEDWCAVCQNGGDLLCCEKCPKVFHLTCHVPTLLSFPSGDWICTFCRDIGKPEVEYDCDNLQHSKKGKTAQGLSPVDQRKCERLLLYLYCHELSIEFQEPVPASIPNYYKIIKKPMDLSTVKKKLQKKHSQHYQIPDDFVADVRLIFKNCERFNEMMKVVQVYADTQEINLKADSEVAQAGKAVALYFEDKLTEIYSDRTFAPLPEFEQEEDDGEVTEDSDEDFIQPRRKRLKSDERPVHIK
thermal stability z-score (lipoamide; [1]): 0.838
thermal stability z-score (lipoamide; arsenate co-treatment: none): 1.24
thermal stability z-score (potassium arsenate): -0.3

NDUFS1 (UniProt P28331)
thermal stability z-score (lipoamide; [1]): 0.106
thermal stability z-score (lipoamide; arsenate co-treatment: none): 0.134
thermal stability z-score (potassium arsenate): 0.842

MTHFS (UniProt P49914)
thermal stability z-score (lipoamide; [1]): -0.574
thermal stability z-score (lipoamide; arsenate co-treatment: none): 0.036
thermal stability z-score (potassium arsenate): -0.488

POLR3E (UniProt Q9NVU0)
thermal stability z-score (lipoamide; [1]): 0.0246
thermal stability z-score (lipoamide; arsenate co-treatment: none): 0.108
thermal stability z-score (potassium arsenate): -0.126

EVPL (UniProt Q92817)
thermal stability z-score (lipoamide; [1]): 0.263
thermal stability z-score (lipoamide; arsenate co-treatment: none): 0.134
thermal stability z-score (potassium arsenate): 0.499

UBE2E3 (UniProt Q969T4)
thermal stability z-score (lipoamide; [1]): 0.196
thermal stability z-score (lipoamide; arsenate co-treatment: none): -0.0847
thermal stability z-score (potassium arsenate): 1.92

YTHDC2 (UniProt Q9H6S0)
thermal stability z-score (lipoamide; [1]): -0.0971
thermal stability z-score (lipoamide; arsenate co-treatment: none): -0.734
thermal stability z-score (potassium arsenate): -0.0852

IQGAP3 (UniProt Q86VI3)
thermal stability z-score (lipoamide; [1]): -0.157
thermal stability z-score (lipoamide; arsenate co-treatment: none): -0.0447
thermal stability z-score (potassium arsenate): -0.171

ADSSL1 (UniProt Q8N142)
thermal stability z-score (lipoamide; [1]): 0.111
thermal stability z-score (lipoamide; arsenate co-treatment: none): 0.223
thermal stability z-score (potassium arsenate): 0.237

FBLN1 (UniProt P23142)
thermal stability z-score (lipoamide; [1]): -2.93
thermal stability z-score (lipoamide; arsenate co-treatment: none): -2.25
thermal stability z-score (potassium arsenate): 1.29

ARHGEF16 (UniProt Q5VV41)
thermal stability z-score (lipoamide; [1]): 0.251
thermal stability z-score (lipoamide; arsenate co-treatment: none): -0.0771
thermal stability z-score (potassium arsenate): -0.201

MAP2K7 (UniProt O14733)
thermal stability z-score (lipoamide; [1]): -0.121
thermal stability z-score (lipoamide; arsenate co-treatment: none): 0.341
thermal stability z-score (potassium arsenate): 0.54

RAB11FIP1 (UniProt Q6WKZ4)
thermal stability z-score (lipoamide; [1]): 0.271
thermal stability z-score (lipoamide; arsenate co-treatment: none): -0.127
thermal stability z-score (potassium arsenate): -0.162

SSX2IP (UniProt Q9Y2D8)
thermal stability z-score (lipoamide; [1]): -0.271
thermal stability z-score (lipoamide; arsenate co-treatment: none): -0.143
thermal stability z-score (potassium arsenate): -0.0542

AAR2 (UniProt Q9Y312)
thermal stability z-score (lipoamide; [1]): -0.223
thermal stability z-score (lipoamide; arsenate co-treatment: none): 0.408
thermal stability z-score (potassium arsenate): -0.912

POLR3D (UniProt P05423)
thermal stability z-score (lipoamide; [1]): 0.483
thermal stability z-score (lipoamide; arsenate co-treatment: none): -0.501
thermal stability z-score (potassium arsenate): -1.56

LMNB2 (UniProt Q03252)
thermal stability z-score (lipoamide; [1]): 0.686
thermal stability z-score (lipoamide; arsenate co-treatment: none): 0.0237
thermal stability z-score (potassium arsenate): 0.839

ARRB1 (UniProt P49407)
thermal stability z-score (lipoamide; [1]): 0.197
thermal stability z-score (lipoamide; arsenate co-treatment: none): 0.543
thermal stability z-score (potassium arsenate): 0.262

ETFB (UniProt P38117)
Chain of UniProt P38117 (P38117 whole entry): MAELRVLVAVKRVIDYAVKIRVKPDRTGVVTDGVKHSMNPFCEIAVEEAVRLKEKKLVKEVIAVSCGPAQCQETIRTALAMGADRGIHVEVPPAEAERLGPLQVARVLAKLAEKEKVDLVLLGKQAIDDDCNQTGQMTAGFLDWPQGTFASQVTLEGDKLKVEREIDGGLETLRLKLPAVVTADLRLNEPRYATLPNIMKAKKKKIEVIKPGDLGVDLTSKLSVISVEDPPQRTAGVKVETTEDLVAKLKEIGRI
thermal stability z-score (lipoamide; [1]): -0.321
thermal stability z-score (lipoamide; arsenate co-treatment: none): 0.54
thermal stability z-score (potassium arsenate): -1.2

ZC3H18 (UniProt Q86VM9)
thermal stability z-score (lipoamide; [1]): 1.11
thermal stability z-score (lipoamide; arsenate co-treatment: none): 0.987
thermal stability z-score (potassium arsenate): -1.11

SHMT2 (UniProt P34897)
thermal stability z-score (lipoamide; [1]): -0.198
thermal stability z-score (lipoamide; arsenate co-treatment: none): -0.436
thermal stability z-score (potassium arsenate): 0.0996

ANKS1A (UniProt Q92625)
thermal stability z-score (lipoamide; [1]): -0.553
thermal stability z-score (lipoamide; arsenate co-treatment: none): 0.198
thermal stability z-score (potassium arsenate): 0.294

TOPBP1 (UniProt Q92547)
thermal stability z-score (lipoamide; [1]): 0.0371
thermal stability z-score (lipoamide; arsenate co-treatment: none): 0.0228
thermal stability z-score (potassium arsenate): -0.623

ABR (UniProt Q12979)
thermal stability z-score (lipoamide; [1]): -0.754
thermal stability z-score (lipoamide; arsenate co-treatment: none): -0.915
thermal stability z-score (potassium arsenate): -0.555

DNAJC10 (UniProt Q8IXB1)
thermal stability z-score (lipoamide; [1]): -3.47
thermal stability z-score (lipoamide; arsenate co-treatment: none): -2.86
thermal stability z-score (potassium arsenate): -0.253

COQ7 (UniProt Q99807)
thermal stability z-score (lipoamide; [1]): -0.0244
thermal stability z-score (lipoamide; arsenate co-treatment: none): 0.331
thermal stability z-score (potassium arsenate): 0.227

SZRD1 (UniProt Q7Z422)
thermal stability z-score (lipoamide; [1]): 0.289
thermal stability z-score (lipoamide; arsenate co-treatment: none): 0.399
thermal stability z-score (potassium arsenate): -0.0744

FMR1 (UniProt Q06787)
thermal stability z-score (lipoamide; [1]): 0.0851
thermal stability z-score (lipoamide; arsenate co-treatment: none): 0.195
thermal stability z-score (potassium arsenate): 0.0999

RBM22 (UniProt Q9NW64)
Chain of UniProt Q9NW64 (Q9NW64 whole entry): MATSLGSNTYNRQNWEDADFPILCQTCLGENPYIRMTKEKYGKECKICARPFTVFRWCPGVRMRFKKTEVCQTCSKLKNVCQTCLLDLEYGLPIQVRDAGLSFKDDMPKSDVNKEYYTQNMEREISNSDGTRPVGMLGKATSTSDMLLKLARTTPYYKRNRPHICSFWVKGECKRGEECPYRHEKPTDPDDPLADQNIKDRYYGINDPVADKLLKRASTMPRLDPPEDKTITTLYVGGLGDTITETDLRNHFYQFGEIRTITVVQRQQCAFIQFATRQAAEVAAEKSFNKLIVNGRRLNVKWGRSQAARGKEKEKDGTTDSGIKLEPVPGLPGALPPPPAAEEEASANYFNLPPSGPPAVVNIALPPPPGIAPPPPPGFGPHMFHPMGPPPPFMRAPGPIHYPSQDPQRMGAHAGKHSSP
thermal stability z-score (lipoamide; [1]): -0.0944
thermal stability z-score (lipoamide; arsenate co-treatment: none): 0.0307
thermal stability z-score (potassium arsenate): -1.96

SHCBP1 (UniProt Q8NEM2)
thermal stability z-score (lipoamide; [1]): 0.0159
thermal stability z-score (lipoamide; arsenate co-treatment: none): 0.0645
thermal stability z-score (potassium arsenate): -0.451

RILPL1 (UniProt Q5EBL4)
Chain of UniProt Q5EBL4 (Q5EBL4 whole entry): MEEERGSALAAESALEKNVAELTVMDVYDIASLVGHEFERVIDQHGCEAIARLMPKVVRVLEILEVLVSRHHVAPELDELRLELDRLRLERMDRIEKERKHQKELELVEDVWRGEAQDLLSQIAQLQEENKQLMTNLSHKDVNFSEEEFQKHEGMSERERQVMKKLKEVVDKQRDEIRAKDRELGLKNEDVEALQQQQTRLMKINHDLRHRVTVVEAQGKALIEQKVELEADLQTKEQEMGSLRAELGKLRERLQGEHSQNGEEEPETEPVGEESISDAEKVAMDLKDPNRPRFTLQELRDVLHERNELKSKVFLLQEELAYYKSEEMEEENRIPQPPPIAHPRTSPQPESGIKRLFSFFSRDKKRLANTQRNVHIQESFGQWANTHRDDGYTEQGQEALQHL
thermal stability z-score (lipoamide; [1]): 0.571
thermal stability z-score (lipoamide; arsenate co-treatment: none): 0.0309
thermal stability z-score (potassium arsenate): 1.21

C12ORF43 (UniProt Q96C57)
thermal stability z-score (lipoamide; [1]): 0.941
thermal stability z-score (lipoamide; arsenate co-treatment: none): -0.0235
thermal stability z-score (potassium arsenate): -1.08

NOP58 (UniProt Q9Y2X3)
thermal stability z-score (lipoamide; [1]): 0.0369
thermal stability z-score (lipoamide; arsenate co-treatment: none): -0.0387
thermal stability z-score (potassium arsenate): 0.471

OTUD5 (UniProt Q96G74)
thermal stability z-score (lipoamide; [1]): -0.721
thermal stability z-score (lipoamide; arsenate co-treatment: none): 0.294
thermal stability z-score (potassium arsenate): 1.72

MTMR2 (UniProt Q13614)
thermal stability z-score (lipoamide; [1]): 0.88
thermal stability z-score (lipoamide; arsenate co-treatment: none): -0.108
thermal stability z-score (potassium arsenate): -0.555

PLEC (UniProt Q15149)
thermal stability z-score (lipoamide; [1]): 2.76
thermal stability z-score (lipoamide; arsenate co-treatment: none): 2.01
thermal stability z-score (potassium arsenate): -3.9

KLHDC4 (UniProt Q8TBB5)
Chain of UniProt Q8TBB5 (Q8TBB5 whole entry): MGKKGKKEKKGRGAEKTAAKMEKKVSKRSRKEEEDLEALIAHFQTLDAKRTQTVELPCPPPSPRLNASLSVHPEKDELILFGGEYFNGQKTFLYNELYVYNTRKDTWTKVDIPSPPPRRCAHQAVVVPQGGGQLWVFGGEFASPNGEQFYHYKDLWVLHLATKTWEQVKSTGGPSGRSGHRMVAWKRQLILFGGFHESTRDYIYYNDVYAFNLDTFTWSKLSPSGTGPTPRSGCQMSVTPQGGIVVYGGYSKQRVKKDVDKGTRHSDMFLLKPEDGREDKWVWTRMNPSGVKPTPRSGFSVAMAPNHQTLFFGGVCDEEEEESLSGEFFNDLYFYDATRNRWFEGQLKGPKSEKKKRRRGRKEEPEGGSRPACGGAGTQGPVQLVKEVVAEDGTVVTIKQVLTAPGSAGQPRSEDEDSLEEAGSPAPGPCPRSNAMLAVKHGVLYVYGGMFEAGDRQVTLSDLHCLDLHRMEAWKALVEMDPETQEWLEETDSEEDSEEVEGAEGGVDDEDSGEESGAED
thermal stability z-score (lipoamide; [1]): -0.895
thermal stability z-score (lipoamide; arsenate co-treatment: none): -0.0677
thermal stability z-score (potassium arsenate): -0.251

POGZ (UniProt Q7Z3K3)
thermal stability z-score (lipoamide; [1]): -0.198
thermal stability z-score (lipoamide; arsenate co-treatment: none): 0.0592
thermal stability z-score (potassium arsenate): -0.422

VPS33B (UniProt Q9H267)
thermal stability z-score (lipoamide; [1]): -0.333
thermal stability z-score (lipoamide; arsenate co-treatment: none): 0.0129
thermal stability z-score (potassium arsenate): 0.205

ATF1 (UniProt P18846)
thermal stability z-score (lipoamide; [1]): 1.13
thermal stability z-score (lipoamide; arsenate co-treatment: none): 1.84
thermal stability z-score (potassium arsenate): -0.0555
